# Assay results taken from patent US20250235476A1, “METHODS AND COMPOSITIONS THAT ARE ALTERNATIVES TO ANTIBIOTICS” (priority 2022, published 2025).
# System: non-specific upper respiratory infection (URI)
# Assay: Randomized double-blind placebo-controlled clinical trial: Days To Recovery (DTR)
# Format: in vivo, human
# Conditions: added to EZC during acute phase of illness
# Method: Methods: A total of 360 patients across the United States were enrolled and randomized in a double-blind manner across two intervention groups, EZC, EZCD, and one placebo group. The study was conducted utilizing a smartphone-based app to screen, enroll and capture study data of the participants. Once a study participant reported the first symptoms of a URI, they were advised to take the intervention as directed and complete the daily symptom survey score until their symptoms resolved.
# A total of 360 individuals, male or female over 18 years old, were enrolled by a third-party clinical research organization (CRO), to participate in the study. […] The placebo was composed of rice concentrate.
# The study was conducted with the CRO's technology platform utilized to screen, enroll and capture study data of the participants.
# Once a study participant reported the first symptoms of a URI, they were advised to take the intervention (i.e., placebo, EZC, or EZCD) taper dosed over a five-day period.
# DTR is a metric that measures the total number of days in which a patient is experiencing symptoms of an illness while taking the intervention or placebo. DTR also directly lends itself for use in a log-rank analysis, which is used to compute statistical significance.
# The primary limitation of DTR arises from the heterogeneous nature of the illness and the patient's unique recovery. […]
substance,measurement,value
vitamin D,effect of addition of vitamin D on illness duration or symptom severity,neither benefited nor harmed
